Results from patent US12258327B2, “5-membered heteroaryl-containing aminopyridine compounds as EGFR inhibitors” (YUHAN CORPORATION, priority 2021, dated 2025).
Read-outs that look alike come from different tables or passages of the source.

Experiments:
EGFR wildtype (WT) = EGFR wildtype (WT) (Homo sapiens, UniProt P00533); assay: Biochemical EGFR kinase assay (Lance Ultra TR-FRET), wildtype
Summary of the method: (§1)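 Step 1: compound in kinase buffer, 0.003–10 μM. Step 2: kinase reaction 1 h at room temperature. Step 4: TR-FRET read at 615/665 nm; IC50 calculated.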

EGFR L858R/C797S = EGFR L858R/C797S (Homo sapiens, UniProt P00533, C797S/L858R); assay: Biochemical EGFR kinase assay (Lance Ultra TR-FRET), double mutant L858R/C797S
Sequence of EGFR L858R/C797S (P00533 25-1210 C797S/L858R): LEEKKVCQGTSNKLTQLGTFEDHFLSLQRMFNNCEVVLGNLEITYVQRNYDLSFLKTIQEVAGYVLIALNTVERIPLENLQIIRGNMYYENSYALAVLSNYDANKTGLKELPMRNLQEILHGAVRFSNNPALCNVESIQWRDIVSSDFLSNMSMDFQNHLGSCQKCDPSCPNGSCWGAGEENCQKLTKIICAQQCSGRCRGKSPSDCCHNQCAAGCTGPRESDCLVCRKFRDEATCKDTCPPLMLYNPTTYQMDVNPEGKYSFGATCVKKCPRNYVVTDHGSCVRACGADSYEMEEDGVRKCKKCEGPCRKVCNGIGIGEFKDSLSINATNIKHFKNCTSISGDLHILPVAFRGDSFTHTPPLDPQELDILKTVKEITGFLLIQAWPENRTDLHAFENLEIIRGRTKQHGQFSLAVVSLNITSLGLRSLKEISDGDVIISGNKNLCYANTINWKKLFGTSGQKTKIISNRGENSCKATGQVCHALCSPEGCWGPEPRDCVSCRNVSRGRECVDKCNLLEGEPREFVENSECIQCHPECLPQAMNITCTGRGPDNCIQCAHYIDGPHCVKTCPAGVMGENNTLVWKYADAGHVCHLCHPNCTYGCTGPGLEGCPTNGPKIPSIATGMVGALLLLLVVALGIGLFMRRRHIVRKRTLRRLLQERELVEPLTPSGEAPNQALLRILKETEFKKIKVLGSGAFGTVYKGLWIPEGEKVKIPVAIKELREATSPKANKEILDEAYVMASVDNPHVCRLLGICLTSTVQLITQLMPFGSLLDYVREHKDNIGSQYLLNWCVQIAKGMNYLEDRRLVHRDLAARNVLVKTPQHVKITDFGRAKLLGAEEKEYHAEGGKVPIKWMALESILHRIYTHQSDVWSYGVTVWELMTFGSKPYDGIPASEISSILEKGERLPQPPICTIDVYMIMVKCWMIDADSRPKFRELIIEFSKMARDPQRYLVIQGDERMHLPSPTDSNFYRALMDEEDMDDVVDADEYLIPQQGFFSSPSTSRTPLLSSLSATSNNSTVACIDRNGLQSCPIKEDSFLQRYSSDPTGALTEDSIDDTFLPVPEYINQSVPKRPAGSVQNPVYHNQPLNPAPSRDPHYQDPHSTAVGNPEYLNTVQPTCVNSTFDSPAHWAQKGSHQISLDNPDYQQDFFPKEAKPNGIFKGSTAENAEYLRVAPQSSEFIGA
Summary of the method: as §1

EGFR del19/T790M/C797S = EGFR del19/T790M/C797S (Homo sapiens, UniProt P00533, C797S/DEL746-750/T790M); assay: Biochemical EGFR kinase assay (Lance Ultra TR-FRET), triple mutant del19/T790M/C797S
Summary of the method: as §1

EGFR del19/C797S = EGFR del19/C797S (Homo sapiens, UniProt P00533, C797S/DEL746-750); assay: Biochemical EGFR kinase assay (Lance Ultra TR-FRET), double mutant del19/C797S
Sequence of EGFR del19/C797S (P00533 with tags, fused parts or gaps DEL746-750/C797S): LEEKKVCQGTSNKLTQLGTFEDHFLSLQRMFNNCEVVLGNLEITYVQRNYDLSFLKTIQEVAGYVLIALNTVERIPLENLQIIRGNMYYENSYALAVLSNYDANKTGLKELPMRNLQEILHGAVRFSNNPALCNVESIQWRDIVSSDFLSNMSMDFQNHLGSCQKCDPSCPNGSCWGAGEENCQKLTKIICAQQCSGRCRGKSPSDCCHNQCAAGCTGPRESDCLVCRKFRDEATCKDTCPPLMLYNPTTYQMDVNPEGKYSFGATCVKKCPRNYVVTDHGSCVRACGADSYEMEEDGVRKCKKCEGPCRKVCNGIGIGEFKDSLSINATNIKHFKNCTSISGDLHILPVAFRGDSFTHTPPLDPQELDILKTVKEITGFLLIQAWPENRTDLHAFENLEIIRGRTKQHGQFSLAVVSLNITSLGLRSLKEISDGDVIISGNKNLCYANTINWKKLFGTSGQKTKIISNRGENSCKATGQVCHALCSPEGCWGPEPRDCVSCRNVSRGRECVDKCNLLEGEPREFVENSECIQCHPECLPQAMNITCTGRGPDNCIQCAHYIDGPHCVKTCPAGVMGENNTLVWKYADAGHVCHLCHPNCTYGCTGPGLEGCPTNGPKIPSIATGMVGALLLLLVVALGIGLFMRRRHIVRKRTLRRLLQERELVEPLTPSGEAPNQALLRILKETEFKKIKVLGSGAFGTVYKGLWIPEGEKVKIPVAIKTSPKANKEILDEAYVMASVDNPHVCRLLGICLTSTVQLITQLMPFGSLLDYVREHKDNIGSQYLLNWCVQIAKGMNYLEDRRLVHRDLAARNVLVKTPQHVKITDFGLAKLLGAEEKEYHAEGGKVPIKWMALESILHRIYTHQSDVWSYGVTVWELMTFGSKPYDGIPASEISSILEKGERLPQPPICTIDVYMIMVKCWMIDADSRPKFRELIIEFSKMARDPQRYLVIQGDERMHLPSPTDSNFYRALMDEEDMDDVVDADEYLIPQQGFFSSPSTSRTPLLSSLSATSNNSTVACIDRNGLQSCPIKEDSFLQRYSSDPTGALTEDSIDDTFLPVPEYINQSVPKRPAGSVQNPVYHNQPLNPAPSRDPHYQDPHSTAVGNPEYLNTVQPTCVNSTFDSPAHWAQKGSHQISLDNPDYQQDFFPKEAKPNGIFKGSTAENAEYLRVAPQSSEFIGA
Summary of the method: as §1

EGFR L858R/T790M/C797S = EGFR L858R/T790M/C797S (Homo sapiens, UniProt P00533, C797S/L858R/T790M); assay: Biochemical EGFR kinase assay (Lance Ultra TR-FRET), triple mutant L858R/T790M/C797S
Sequence of EGFR L858R/T790M/C797S (P00533 25-1210 T790M/C797S/L858R): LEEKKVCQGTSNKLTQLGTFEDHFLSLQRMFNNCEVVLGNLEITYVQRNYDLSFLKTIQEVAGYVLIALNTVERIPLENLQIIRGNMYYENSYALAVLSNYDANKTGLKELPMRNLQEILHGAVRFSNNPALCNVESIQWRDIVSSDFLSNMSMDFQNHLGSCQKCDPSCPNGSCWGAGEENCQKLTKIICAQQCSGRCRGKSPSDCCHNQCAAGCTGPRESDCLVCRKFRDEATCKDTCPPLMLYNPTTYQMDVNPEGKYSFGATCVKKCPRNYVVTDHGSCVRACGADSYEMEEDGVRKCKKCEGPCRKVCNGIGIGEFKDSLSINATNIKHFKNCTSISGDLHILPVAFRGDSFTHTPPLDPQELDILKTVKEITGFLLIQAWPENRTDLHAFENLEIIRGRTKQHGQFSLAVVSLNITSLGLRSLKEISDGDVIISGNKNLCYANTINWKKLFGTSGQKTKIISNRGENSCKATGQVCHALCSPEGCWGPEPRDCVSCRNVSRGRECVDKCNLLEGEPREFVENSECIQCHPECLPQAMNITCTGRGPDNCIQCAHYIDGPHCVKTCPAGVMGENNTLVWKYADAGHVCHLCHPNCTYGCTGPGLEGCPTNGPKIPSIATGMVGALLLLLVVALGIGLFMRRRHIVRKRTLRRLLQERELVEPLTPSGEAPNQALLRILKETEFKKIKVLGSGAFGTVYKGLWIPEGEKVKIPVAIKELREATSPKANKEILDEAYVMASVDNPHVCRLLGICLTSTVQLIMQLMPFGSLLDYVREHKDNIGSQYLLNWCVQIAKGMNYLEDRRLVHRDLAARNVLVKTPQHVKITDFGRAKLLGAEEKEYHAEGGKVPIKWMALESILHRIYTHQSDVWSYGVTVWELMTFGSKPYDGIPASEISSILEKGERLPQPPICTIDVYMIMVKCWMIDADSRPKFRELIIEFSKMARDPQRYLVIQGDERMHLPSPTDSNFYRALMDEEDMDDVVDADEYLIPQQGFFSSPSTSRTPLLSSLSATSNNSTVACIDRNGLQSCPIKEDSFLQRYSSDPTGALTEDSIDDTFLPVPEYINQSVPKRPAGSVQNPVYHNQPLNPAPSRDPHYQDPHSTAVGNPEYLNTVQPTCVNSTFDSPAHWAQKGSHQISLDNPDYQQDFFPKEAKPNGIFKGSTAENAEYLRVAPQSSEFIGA
Summary of the method: as §1

[1] = IC50 WT (nM) 100 μM ATP, 100 μM ATP
[2] = Km ATP, read-out: IC50 WT (nM) Km ATP
[3] = IC50 L858R/C797S (nM) 100 μM ATP, 100 μM ATP
[4] = Km ATP, read-out: IC50 L858R/C797S (nM) Km ATP
[5] = Km ATP, read-out: IC50 del19/T790M/C797S (nM) Km ATP
[6] = IC50 del19/C797S (nM) 100 μM ATP, 100 μM ATP
[7] = Km ATP, read-out: IC50 del19/C797S (nM) Km ATP
[8] = Km ATP, read-out: IC50 L858R/T790M/C797S (nM) Km ATP
[9] = IC50 del19/T790M/C797S (nM) 100 μM ATP, 100 μM ATP
[10] = IC50 L858R/T790M/C797S (nM) 100 μM ATP, 100 μM ATP

Sequence of EGFR wildtype (WT) (P00533 25-1210): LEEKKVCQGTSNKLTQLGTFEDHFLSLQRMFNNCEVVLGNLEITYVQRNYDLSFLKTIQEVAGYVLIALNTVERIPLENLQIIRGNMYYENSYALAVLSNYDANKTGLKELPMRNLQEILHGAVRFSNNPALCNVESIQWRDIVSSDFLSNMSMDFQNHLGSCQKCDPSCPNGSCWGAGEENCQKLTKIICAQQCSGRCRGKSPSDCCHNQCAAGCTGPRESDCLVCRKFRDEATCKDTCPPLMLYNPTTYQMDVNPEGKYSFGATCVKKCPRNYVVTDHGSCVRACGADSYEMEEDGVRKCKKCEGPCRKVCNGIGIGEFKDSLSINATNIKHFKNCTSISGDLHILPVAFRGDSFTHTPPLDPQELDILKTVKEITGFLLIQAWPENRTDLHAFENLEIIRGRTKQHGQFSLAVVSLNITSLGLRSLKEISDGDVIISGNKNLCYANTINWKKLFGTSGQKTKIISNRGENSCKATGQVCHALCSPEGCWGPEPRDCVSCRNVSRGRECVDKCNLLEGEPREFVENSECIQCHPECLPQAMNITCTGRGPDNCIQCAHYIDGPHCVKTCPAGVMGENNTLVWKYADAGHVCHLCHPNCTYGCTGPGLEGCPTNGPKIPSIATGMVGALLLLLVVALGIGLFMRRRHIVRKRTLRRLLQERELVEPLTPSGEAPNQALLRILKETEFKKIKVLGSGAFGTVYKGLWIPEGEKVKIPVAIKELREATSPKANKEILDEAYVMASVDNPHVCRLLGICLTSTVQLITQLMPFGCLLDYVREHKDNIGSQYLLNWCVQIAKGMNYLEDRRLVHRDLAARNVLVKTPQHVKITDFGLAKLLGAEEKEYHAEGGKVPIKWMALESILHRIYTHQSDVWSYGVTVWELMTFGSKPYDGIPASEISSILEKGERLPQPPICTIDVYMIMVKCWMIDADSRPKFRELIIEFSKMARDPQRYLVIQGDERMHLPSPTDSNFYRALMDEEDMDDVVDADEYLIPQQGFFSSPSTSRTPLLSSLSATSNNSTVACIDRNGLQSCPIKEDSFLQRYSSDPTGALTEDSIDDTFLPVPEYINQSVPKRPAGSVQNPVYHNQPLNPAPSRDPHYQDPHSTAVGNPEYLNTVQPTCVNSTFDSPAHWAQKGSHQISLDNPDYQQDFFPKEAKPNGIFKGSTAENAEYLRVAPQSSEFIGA

Row | SMILES | IC50 (EGFR wildtype (WT); [1]) [nM] | IC50 (EGFR wildtype (WT); [2]) [nM] | IC50 (EGFR L858R/C797S; [3]) [nM] | IC50 (EGFR L858R/C797S; [4]) [nM] | IC50 (EGFR del19/T790M/C797S; [5]) [nM] | IC50 (EGFR del19/C797S; [6]) [nM] | IC50 (EGFR del19/C797S; [7]) [nM] | IC50 (EGFR L858R/T790M/C797S; [8]) [nM] | IC50 (EGFR del19/T790M/C797S; [9]) [nM] | IC50 (EGFR L858R/T790M/C797S; [10]) [nM] | IC50 (EGFR wildtype (WT); read-out: IC50 WT (nM) 100 μM ATP, 100 μM ATP) [nM] | IC50 (EGFR L858R/C797S; read-out: IC50 L858R/C797S (nM) 100 μM ATP, 100 μM ATP) [nM] | IC50 (EGFR del19/T790M/C797S; read-out: IC50 del19/T790M/C797S (nM) 100 μM ATP, 100 μM ATP) [nM] | IC50 (EGFR del19/C797S; read-out: IC50 del19/C797S (nM) 100 μM ATP, 100 μM ATP) [nM] | IC50 (EGFR L858R/T790M/C797S; read-out: IC50 L858R/T790M/C797S (nM) 100 μM ATP, 100 μM ATP) [nM]
1 | O=S(=O)(C1CC1)n1cc(-c2nccc(Nc3cc(N[C@H]4CC[C@](O)(CO)CC4)c(-c4csc(N5CCOCC5)n4)cn3)n2)cn1 [Example 125, (1s,4s)-4-((2-((2-(1-(Cyclopropylsulfonyl)-1H-pyrazol-4-yl)pyrimidin-4-yl)amino)-5-(2-morpholinothiazol-4-yl)pyridin-4-yl)amino)-1-(hydroxymethyl)cyclohexan-1-ol] | > 10000 | 144 | 218 | 10.8 | 0.7 | 18.5 | 20.4 | 0.4 |  |  |  |  |  |  | 
2 | O=S(=O)(C1CC1)n1cc(-c2nccc(Nc3cc(N[C@H]4CC[C@@H](NCCF)CC4)c(-c4csc(N5CCOCC5)n4)cn3)n2)cn1 [Example 126, N^2-(2-(1-(Cyclopropylsulfonyl)-1H-pyrazol-4-yl)pyrimidin-4-yl)-N^4-((1s,4s)-4-((2-fluoroethyl)amino)cyclohexyl)-5-(2-morpholinothiazol-4-yl)pyridine-2,4-diamine] | > 10000 | 112 | 379 |  | 0.7 | 30.3 | 21 | 0.4 | 0.8 | 1.3 |  |  |  |  | 
3 | Cn1ccc(-c2cnc(Nc3ccnc(-c4cnn(S(=O)(=O)C5CC5)c4)n3)cc2NCC2(C)CCC(O)CC2)n1 (stereo not shown) [Example 127, 4-(((2-((2-(1-(Cyclopropylsulfonyl)-1H-pyrazol-4-yl)pyrimidin-4-yl)amino)-5-(1-methyl-1H-pyrazol-3-yl)pyridin-4-yl)amino)methyl)-4-methylcyclohexan-1-ol] | > 10000 | 53 | 355 | 19.6 | 0.7 | 25.8 | 16.9 | 0.7 | 1 | 1.8 |  |  |  |  | 
4 | CC1(CNc2cc(Nc3ccnc(-c4cnn(S(=O)(=O)C5CC5)c4)n3)ncc2-c2ccn(C(F)F)n2)CCC(O)CC1 (stereo not shown) [Example 128, 4-(((2-((2-(1-(Cyclopropylsulfonyl)-1H-pyrazol-4-yl)pyrimidin-4-yl)amino)-5-(1-(difluoromethyl)-1H-pyrazol-3-yl)pyridin-4-yl)amino)methyl)-4-methylcyclohexan-1-ol] | > 10000 |  | 1120 |  |  | 40.8 |  |  | 3.1 | 6.4 |  |  |  |  | 
5 | Cn1ccc(-c2cnc(Nc3ccnc(-c4cnn(S(=O)(=O)C5CC5)c4)n3)cc2NC[C@H]2CC[C@H](NCC(F)F)CC2)n1 [Example 129, N^2-(2-(1-(Cyclopropylsulfonyl)-1H-pyrazol-4-yl)pyrimidin-4-yl)-N^4-(((1r,4r)-4-((2,2-difluoroethyl)amino)cyclohexyl)methyl)-5-(1-methyl-1H-pyrazol-3-yl)pyridine-2,4-diamine] | > 10000 |  | 14.3 |  |  | 2 |  |  | 0.7 | 0.7 |  |  |  |  | 
6 | O=S(=O)(C1CC1)n1cc(-c2nccc(Nc3cc(NC[C@H]4CC[C@H](NCC(F)F)CC4)c(-c4ccn(C(F)F)n4)cn3)n2)cn1 [Example 130, N^2-(2-(1-(Cyclopropylsulfonyl)-1H-pyrazol-4-yl)pyrimidin-4-yl)-N^4-(((1r,4r)-4-((2,2-difluoroethyl)amino)cyclohexyl)methyl)-5-(1-(difluoromethyl)-1H-pyrazol-3-yl)pyridine-2,4-diamine] |  |  |  |  |  |  |  |  |  |  | > 10000 | 96.5 | 2.1 | 6.3 | 2
7 | Cn1ccc(-c2cnc(Nc3ccnc(-c4cnn(S(=O)(=O)C5CC5)c4)n3)cc2NCC2CCC(NCCF)CC2)n1 (stereo not shown) [Example 131, N^2-(2-(1-(Cyclopropylsulfonyl)-1H-pyrazol-4-yl)pyrimidin-4-yl)-N^4-((4-((2-fluoroethyl)amino)cyclohexyl)methyl)-5-(1-methyl-1H-pyrazol-3-yl)pyridine-2,4-diamine] | 1540 | 2.8 | 1.1 | 0.4 | 0.2 | 0.5 | 0.2 | 0.1 | 0.3 | 0.3 |  |  |  |  | 
